Laboratory results as given in patent US11312712B2, “Azabenzimidazoles and their use as AMPA receptor modulators” (Janssen Pharmaceutica NV, priority 2015, dated 2022).

Target: GluA1o-γ8 (GRIA1o-CACNG8 fusion construct) (Homo sapiens (Human), UniProt P42261+Q8WXS5)
Assay: Calcium flux assay (FLIPR), inhibition of TARP γ8 dependent AMPA receptor activity
Assay type: cell-based
Details: GluA1o-γ8 (GRIA1o-CACNG8 fusion) in HEK293 cells, calcium flux after 15 μM glutamate
In short: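 Glutamate (15 μM) was added to a stable HEK293 line carrying the GluA1o–γ8 fusion, which had been preincubated with compound and calcium dye in HEPES buffer, pH 7.4. Normalized FLIPR fluorescence (no compound vs 10 μM CP465022) was fitted with four parameters; pIC50 is the midpoint's negative log.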

GluA1o-γ8 (GRIA1o-CACNG8 fusion construct), sequence (P42261 other isoform, or with tags, fused parts or gaps): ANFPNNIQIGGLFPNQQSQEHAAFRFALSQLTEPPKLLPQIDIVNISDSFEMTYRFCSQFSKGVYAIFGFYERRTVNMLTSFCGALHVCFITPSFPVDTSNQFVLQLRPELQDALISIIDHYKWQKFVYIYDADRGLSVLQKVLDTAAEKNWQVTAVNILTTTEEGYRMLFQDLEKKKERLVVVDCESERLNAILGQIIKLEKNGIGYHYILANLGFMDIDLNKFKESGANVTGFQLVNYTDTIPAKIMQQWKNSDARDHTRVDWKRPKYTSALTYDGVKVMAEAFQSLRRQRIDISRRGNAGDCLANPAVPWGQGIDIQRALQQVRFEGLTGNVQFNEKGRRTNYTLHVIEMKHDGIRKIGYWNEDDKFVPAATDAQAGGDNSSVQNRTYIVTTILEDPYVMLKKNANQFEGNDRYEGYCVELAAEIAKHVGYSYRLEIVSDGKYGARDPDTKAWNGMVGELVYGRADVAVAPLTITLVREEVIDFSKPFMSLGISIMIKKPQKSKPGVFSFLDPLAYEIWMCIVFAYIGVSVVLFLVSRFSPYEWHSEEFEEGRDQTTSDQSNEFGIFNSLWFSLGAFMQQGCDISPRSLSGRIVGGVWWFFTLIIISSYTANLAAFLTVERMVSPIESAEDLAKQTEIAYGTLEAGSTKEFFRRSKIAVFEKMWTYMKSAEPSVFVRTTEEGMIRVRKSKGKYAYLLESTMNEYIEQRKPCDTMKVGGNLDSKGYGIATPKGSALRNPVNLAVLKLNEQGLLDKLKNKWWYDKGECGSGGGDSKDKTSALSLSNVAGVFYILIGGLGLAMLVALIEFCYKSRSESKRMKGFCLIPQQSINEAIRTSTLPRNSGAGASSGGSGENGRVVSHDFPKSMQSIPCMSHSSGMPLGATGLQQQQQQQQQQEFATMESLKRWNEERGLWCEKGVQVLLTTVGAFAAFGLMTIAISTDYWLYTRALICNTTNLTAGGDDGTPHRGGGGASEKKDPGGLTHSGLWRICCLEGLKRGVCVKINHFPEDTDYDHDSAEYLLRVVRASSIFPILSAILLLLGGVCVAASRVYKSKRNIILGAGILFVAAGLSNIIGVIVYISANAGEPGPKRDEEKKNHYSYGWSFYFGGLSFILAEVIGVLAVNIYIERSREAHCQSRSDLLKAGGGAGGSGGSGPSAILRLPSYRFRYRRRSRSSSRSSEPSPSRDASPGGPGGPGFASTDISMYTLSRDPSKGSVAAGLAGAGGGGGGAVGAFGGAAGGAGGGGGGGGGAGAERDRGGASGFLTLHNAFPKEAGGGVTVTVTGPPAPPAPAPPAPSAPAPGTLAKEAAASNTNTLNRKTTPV

SMILES | IC50
COC(C)(C)c1nc2ccc(C(F)(F)F)nc2n1-c1cc(C)c2[nH]ncc2c1 [Example 251, 2-(1-Methoxy-1-methyl-ethyl)-3-(7-methyl-1H-indazol-5-yl)-5-(trifluoromethyl)imidazo[4,5-b]pyridine] | 2.51 nM
Cc1cc(-n2c(C(C)(F)F)nc3ccc(C(F)(F)F)nc32)cc2cn[nH]c12 [Example 252, 2-(1,1-Difluoroethyl)-3-(7-methyl-1H-indazol-5-yl)-5-(trifluoromethyl)imidazo[4,5-b]pyridine] | 0.158 nM
Cc1cc(-n2c(C(C)(C)F)nc3ccc(C(F)(F)F)nc32)cc2cn[nH]c12 [Example 253, 2-(1-Fluoro-1-methyl-ethyl)-3-(7-methyl-1H-indazol-5-yl)-5-(trifluoromethyl)imidazo[4,5-b]pyridine] | 0.2 nM
CC(C)(F)c1nc2ccc(C(F)(F)F)nc2n1-c1cc(Cl)c2[nH]ncc2c1 [Example 254, 3-(7-Chloro-1H-indazol-5-yl)-2-(1-fluoro-1-methyl-ethyl)-5-(trifluoromethyl)imidazo[4,5-b]pyridine] | 0.0631 nM
Cc1cc(-n2c(C3CC3)nc3ccc(C(F)(F)F)nc32)cc2cn[nH]c12 [Example 255, 2-Cyclopropyl-3-(7-methyl-1H-indazol-5-yl)-5-(trifluoromethyl)imidazo[4,5-b]pyridine] | 0.0316 nM
FC(F)(F)c1ccc2nc(C3(F)CC3)n(-c3cc(Cl)c4[nH]ncc4c3)c2n1 [Example 258, 3-(7-Chloro-1H-indazol-5-yl)-2-(1-fluorocyclopropyl)-5-(trifluoromethyl)imidazo[4,5-b]pyridine] | 0.0631 nM
Cc1cc(-n2c(C3(F)CC3)nc3ccc(C(F)(F)F)nc32)cc2cn[nH]c12 [Example 259, 2-(1-Fluorocyclopropyl)-3-(7-methyl-1H-indazol-5-yl)-5-(trifluoromethyl)imidazo[4,5-b]pyridine] | 0.0794 nM
Cc1cc(-n2c(-c3ccnc(F)c3)nc3ccc(C(F)F)nc32)cc2cn[nH]c12 [Example 263, 5-(Difluoromethyl)-2-(2-fluoro-4-pyridyl)-3-(7-methyl-1H-indazol-5-yl)imidazo[4,5-b]pyridine] | 0.158 nM
Fc1cc(-c2nc3ccc(C(F)F)nc3n2-c2cc(Cl)c3[nH]ncc3c2)ccn1 [Example 264, 3-(7-Chloro-1H-indazol-5-yl)-5-(difluoromethyl)-2-(2-fluoro-4-pyridyl)imidazo[4,5-b]pyridine] | 0.1 nM
FC(F)(F)c1ccc2nc(C(F)(F)F)n(-c3cc(Cl)c4cn[nH]c4c3)c2n1 [Example 265, 3-(4-Chloro-1H-indazol-6-yl)-2,5-bis(trifluoromethyl)imidazo[4,5-b]pyridine] | 126 nM
CC(F)(F)c1nc2ccc(C(F)(F)F)nc2n1-c1ccc2[nH]c(=O)sc2c1 [Example 266, 6-[2-(1,1-Difluoroethyl)-5-(trifluoromethyl)imidazo[4,5-b]pyridin-3-yl]-3H-1,3-benzothiazol-2-one] | 0.1 nM
CC(F)(F)c1nc2ccc(C(F)(F)F)nc2n1-c1cc(Cl)c2[nH]ncc2c1 [Example 267, 3-(7-Chloro-1H-indazol-5-yl)-2-(1,1-difluoroethyl)-5-(trifluoromethyl)imidazo[4,5-b]pyridine] | 0.0158 nM
Cc1ccc2nc(C(F)(F)F)n(-c3cc(Cl)c4[nH]ncc4c3)c2n1 [Example 268, 3-(7-Chloro-1H-indazol-5-yl)-5-methyl-2-(trifluoromethyl)imidazo[4,5-b]pyridine] | 0.0631 nM
CC(C)c1nc2ccc(C(F)F)nc2n1-c1cc(Cl)c2[nH]ncc2c1 [Example 269, 3-(7-Chloro-1H-indazol-5-yl)-5-(difluoromethyl)-2-isopropyl-imidazo[4,5-b]pyridine] | 0.0316 nM
FC(F)(F)c1ccc2nc(C(F)(F)F)n(-c3cc(Cl)c4[nH]ncc4c3)c2n1 [Example 270, 3-(7-Chloro-1H-indazol-5-yl)-2,5-bis(trifluoromethyl)imidazo[4,5-b]pyridine] | 0.02 nM
O=C1Cc2cc(-n3c(C(F)(F)F)nc4ccc(C(F)(F)F)nc43)cc(Cl)c2N1 [Example 271, 5-[2,5-Bis(trifluoromethyl)imidazo[4,5-b]pyridin-3-yl]-7-chloro-indolin-2-one] | 0.2 nM
O=C1Cc2cc(-n3c(C(F)F)nc4ccc(C(F)(F)F)nc43)cc(Cl)c2N1 [Example 272, 7-Chloro-5-[2-(difluoromethyl)-5-(trifluoromethyl)imidazo[4,5-b]pyridin-3-yl]indolin-2-one] | 0.2 nM

Further lines, results first:

IC50 | SMILES
0.0631 nM | Cc1cc(-n2c(C(C)C)nc3ccc(C(F)F)nc32)cc2cn[nH]c12 [Example 273, 5-(Difluoromethyl)-2-isopropyl-3-(7-methyl-1H-indazol-5-yl)imidazo[4,5-b]pyridine]
0.316 nM | Cc1nc2ccc(C(F)F)nc2n1-c1cc(Cl)c2[nH]ncc2c1 [Example 274, 3-(7-Chloro-1H-indazol-5-yl)-5-(difluoromethyl)-2-methyl-imidazo[4,5-b]pyridine]
0.126 nM | Cc1cc(-n2c(C(F)(F)F)nc3ccc(C(F)(F)F)nc32)cc2c1NC(=O)C2 [Example 275, 5-[2,5-Bis(trifluoromethyl)imidazo[4,5-b]pyridin-3-yl]-7-methyl-indolin-2-one]
0.2 nM | Cc1cc(-n2c(C(C)(F)F)nc3ccc(C(F)(F)F)nc32)cc2c1NC(=O)C2 [Example 276, 5-[2-(1,1-Difluoroethyl)-5-(trifluoromethyl)imidazo[4,5-b]pyridin-3-yl]-7-methyl-indolin-2-one]
0.0631 nM | FC(F)c1nc2ccc(C(F)(F)F)nc2n1-c1cc(Cl)c2[nH]ncc2c1 [Example 277, 3-(7-Chloro-1H-indazol-5-yl)-2-(difluoromethyl)-5-(trifluoromethyl)imidazo[4,5-b]pyridine]
3.16 nM | Cc1ccc2nc(C(F)F)n(-c3cc(Cl)c4[nH]ncc4c3)c2n1 [Example 278, 3-(7-Chloro-1H-indazol-5-yl)-2-(difluoromethyl)-5-methyl-imidazo[4,5-b]pyridine]
1.26 nM | Fc1cnc2c(c1)nc(C(F)(F)F)n2-c1cc(Cl)c2[nH]ncc2c1 [Example 279, 3-(7-Chloro-1H-indazol-5-yl)-6-fluoro-2-(trifluoromethyl)imidazo[4,5-b]pyridine]
0.0158 nM | FC(F)c1nc2ccc(C(F)(F)F)nc2n1-c1cc(Br)c2[nH]ncc2c1 [Example 280, 3-(7-Bromo-1H-indazol-5-yl)-2-(difluoromethyl)-5-(trifluoromethyl)imidazo[4,5-b]pyridine]
0.0631 nM | Cc1cc(-n2c(C(F)(F)F)nc3ccc(C(F)(F)F)nc32)cc2sc(=O)[nH]c12 [Example 281, 6-[2,5-Bis(trifluoromethyl)imidazo[4,5-b]pyridin-3-yl]-4-methyl-3H-1,3-benzothiazol-2-one]
0.0316 nM | O=c1[nH]c2c(Cl)cc(-n3c(C(F)(F)F)nc4ccc(C(F)(F)F)nc43)cc2s1 [Example 282, 6-[2,5-Bis(trifluoromethyl)imidazo[4,5-b]pyridin-3-yl]-4-chloro-3H-1,3-benzothiazol-2-one]
2.51 nM | O=c1[nH]c2c(F)cc(-n3c(C(F)(F)F)nc4ccc(C(F)(F)F)nc43)cc2o1 [Example 283, 6-[2,5-Bis(trifluoromethyl)imidazo[4,5-b]pyridin-3-yl]-4-fluoro-3H-1,3-benzoxazol-2-one]
